According to patent US20090088373A1, “USE OF COMPOSITIONS TO ENHANCE INNATE IMMUNE RESPONSE” (priority 2007, published 2009):

Experiments:
TLR6 = TLR6 gene expression by qPCR in NHEK; format: cell-based, human; settings: Example 3; 10 nM pimecrolimus, 1 nM 1.25D3
Experimental: (§1) To assess the effect of pimecrolimus on the innate immune response of the epidermis, cultures of normal human keratinocytes (NHEK) are stimulated with a combination of a concentration of 10 nM pimecrolimus and of 1 nM 1.25D3. Gene expression of TLR1, TLR2, TLR4, TLR6 and CD14 are evaluated by qPCR. For CD14 protein expression, a Western Blot is performed and bands are quantified by densitometry using lmagej. Vehicle treated keratinocytes serve as controls. Cathelicidin protein expression is evaluated by immunofluorescence staining.

[1] = system: Staphylococcus aureus ΔmprF; assay: Growth of S. aureus ΔmprF (OD600) mixed with lysates of stimulated normal human keratinocytes; format: cell-based; settings: for Bacterial growth OD600 (Mean): S. aureus + lysates of NHEK stimulated with 10 nM pimecrolimus, 1 nM 1.25D3 or combination, 37° C.
Experimental: (§2) To assess the effect of pimecrolimus on the innate immune response of the epidermis against bacteria, cultures of normal human keratinocytes (NHEK) are stimulated with a concentration of 10 nM pimecrolimus, 1 nM 1.25D3 (active 1.25 D-hydroxy calciferol) or their combination. Cells are lysed via sonication 20 minutes in an ice bath, after which cell lysates were mixed with Staphylococcus aureus ΔmprF cultures and incubated at 37° C. Bacterial growth over time is monitored by OD600 (Table 1). To determine if Pimecrolimus alone was able to kill Staphylococcus aureus ΔmprF, Pimecrolimus in a concentration of 10 nM is co-incubated with Staphylococcus aureus ΔmprF cultures and incubated at 37° C. (Table 2). Bacterial growth is monitored by OD600 (*: p<0.05; **: p<0.01; Student's t-test).

TLR2 = TLR2 gene expression by qPCR in NHEK; format: cell-based, human; settings: for TLR2 mRNA expression (Mean): 10 nM pimecrolimus; for TLR2 mRNA expression (Means of N = 3): Example 6, 10 nM Pimecrolimus, 1 nM 1,25D3; for TLR2 gene expression (Mean): Example 8, 24 hours
Experimental: as §1
(§3) To assess the effect of pimecrolimus on the innate immune response of the epidermis, cultures of normal human keratinocytes (NHEK) are stimulated with a concentration of 10 nM pimecrolimus,1 nM 1.25 D3, 0.1 μg/ml TLR2/6 ligand Malp-2 or their combination. Expression of cathelicidin, CD14 and TLR2 mRNA normal human keratinocytes is measured and evaluated accordingly to the procedures as detailed in Example 2 above.
(§4) To assess the effect of time dependent effects of pimecrolimus on the innate immune response of the epidermis, cultures of normal human keratinocytes (NHEK) are stimulated with 10 nM Pimecrolimus and low dose calciferol (1,25D3) 1 nM for different time points. mRNA expression of cathelicidin, CD14 and TLR2 is analyzed by qPCR.
(§5) To assess the effect of calciferol on varying levels of pimecrolimus on the innate immune response of the epidermis, cultures of normal human keratinocytes (NHEK) are stimulated with 0.01 nM, 0.1 nM, 1 nM and 10 nM concentrations of pimecrolimus with or without 1 nM concentrations of calciferol for 24 hours. Expression of cathelicidin mRNA and gene expression of TLR2 is measured and evaluated accordingly to the procedures as detailed in Example 2 above.

cathelicidin = assay: Cathelicidin mRNA expression in normal human keratinocytes (NHEK); format: cell-based; set-up: Cathelicidin mRNA expression (Mean) / Cathelicidin mRNA expression (means): unit not given here; settings: for Cathelicidin mRNA expression (means): 1 uM tacrolimus, 1 ug/ml CsA, 25ng/ml rapamycin; for Cathelicidin mRNA expression (Means of N = 3): Example 6, 10 nM Pimecrolimus, 1 nM 1,25D3
Experimental: (§6) To assess the effect of pimecrolimus on the innate immune response of the epidermis, cultures of normal human keratinocytes (NHEK) are stimulated with combinations of a concentration of 10 nM pimecrolimus, 1 μg/ml TLR 2/CD14 ligand—peptidoglycan (PGN), 10 μg/ml lipoteichoic acid (LTA), 2 0.1 μg/ml TLR 2/6 ligand—Malp-, and/or 0.1 μg/ml TLR 4/CD14 ligand—lipopolysaccharide (LPS). Expression of cathelicidin mRNA (Table 3) and protein as well as Human Beta Defensin (HBD) 2 (Table 4) and HBD3 (Table 5) expression in normal human keratinocytes is measured.
as §3
To assess the effect of pimecrolimus on the innate immune response of the epidermis, cultures of normal human keratinocytes (NHEK) are stimulated with a concentration of 10 nM pimecrolimus, 1 uM tacrolimus, 1 ug/ml CsA, 25ng/ml rapamycin, or a combination of pimecrolimus and rapamycin, each of these with or without 0.1 μg/ml TLR2/6 ligand Malp-2. Cathelicidin mRNA expression is evaluated.
as §4
To assess the effect of varying levels of pimecrolimus on the innate immune response of the epidermis, cultures of normal human keratinocytes (NHEK) are stimulated with 0 nM, 5 nM, 10 nM, 20 nM, 30 nM, […], […] and 60 nM concentrations of pimecrolimus. Expression of cathelicidin mRNA expression is measured and evaluated accordingly to the procedures as detailed in Example 2 above.
as §5

[2] = system: Staphylococcus aureus ΔmprF; assay: Direct co-incubation of Pimecrolimus with S. aureus ΔmprF cultures (OD600); format: cell-based; settings: for Bacterial growth OD600 (Mean): 10 nM Pimecrolimus co-incubated with S. aureus, no keratinocyte lysate, 37° C.
Experimental: as §2

HBD3 = HBD3 expression in normal human keratinocytes (NHEK); format: cell-based; set-up: unit not given here; settings: Example 2
Experimental: as §6

[3] = in the presence of low dose 1,25D3 and Malp-2

Compound: CC[C@@H]1/C=C(\C)C[C@H](C)C[C@H](OC)[C@H]2O[C@@](O)(C(=O)C(=O)N3CCCC[C@H]3C(=O)O[C@H](/C(C)=C/[C@@H]3CC[C@H](Cl)[C@H](OC)C3)[C@H](C)[C@@H](O)CC1=O)[C@H](C)C[C@@H]2OC [Pimecrolimus, pimecrolimus]
- TLR6 mRNA expression (Mean) (TLR6): 4.40
- Bacterial growth OD600 (Mean) ([1]; 0 h): 0.2253
- Bacterial growth OD600 (Mean) ([1]; 2 h): 0.2557
- Bacterial growth OD600 (Mean) ([1]; 4 h): 0.2807
- Bacterial growth OD600 (Mean) ([1]; 5 h): 0.343
- Bacterial growth OD600 (Mean) ([1]; 6 h): 0.4507
- Bacterial growth OD600 (Mean) ([1]; 8 h): 0.6843
- Antimicrobial effect of keratinocytes against S. aureus ΔmprF (in words) ([1]; summary of Table 1): increases the ability of keratinocytes to kill Staphylococcus aureus ΔmprF
- TLR2 mRNA expression (Mean) (TLR2; Example 3, 1 nM 1.25D3): 1.80
- TLR2 mRNA expression (Mean) (TLR2; Example 4, 1 nM 1.25 D3, 0.1 μg/ml Malp-2 or combination): 0.29
- TLR2 mRNA expression (Means of N = 3) (TLR2; 0 h): 1.00
- TLR2 mRNA expression (Means of N = 3) (TLR2; 8 h): 0.64
- TLR2 mRNA expression (Means of N = 3) (TLR2; 24 h): 1.31
- TLR2 mRNA expression (Means of N = 3) (TLR2; 48 h): 1.51
- TLR2 gene expression (Mean) (TLR2; 0.01 nM PIM with 1 nM 1.25D3): 0.82
- TLR2 gene expression (Mean) (TLR2; 0.01 nM PIM, no 1.25D3): 0.73
- TLR2 gene expression (Mean) (TLR2; 0.1 nM PIM with 1 nM 1.25D3): 0.57
- TLR2 gene expression (Mean) (TLR2; 0.1 nM PIM, no 1.25D3): 0.59
- TLR2 gene expression (Mean) (TLR2; 1 nM PIM with 1 nM 1.25D3): 1.07
- TLR2 gene expression (Mean) (TLR2; 1 nM PIM, no 1.25D3): 0.98
- TLR2 gene expression (Mean) (TLR2; 10 nM PIM with 1 nM 1.25D3): 3.94
- TLR2 gene expression (Mean) (TLR2; 10 nM PIM, no 1.25D3): 1.80
- TLR2 expression (in words) (TLR2; [3]): increasing
- Cathelicidin mRNA expression (Mean) (cathelicidin; Example 2, with 10 nM Pimecrolimus + 0.1 μg/ml LPS): 8.67
- Cathelicidin mRNA expression (Mean) (cathelicidin; Example 2, with 10 nM Pimecrolimus + 0.1 μg/ml Malp-2): 26.08
- Cathelicidin mRNA expression (Mean) (cathelicidin; Example 2, with 10 nM Pimecrolimus + 1 μg/ml PGN): 9.81
- Cathelicidin mRNA expression (Mean) (cathelicidin; Example 2, with 10 nM Pimecrolimus + 10 μg/ml LTA): 18.56
- Cathelicidin mRNA expression (Mean) (cathelicidin; Example 2, with 10 nM Pimecrolimus, no TLR ligand (control row)): 2.64
- Cathelicidin mRNA expression (Mean) (cathelicidin; Example 4, 10 nM pimecrolimus, 1 nM 1.25 D3, 0.1 μg/ml Malp-2 or combination): 22.57
- Cathelicidin mRNA expression (means) (cathelicidin; Example 5, Experiment 1, with 0.1 μg/ml Malp-2, 10 nM pimecrolimus): 2.98
- Cathelicidin mRNA expression (means) (cathelicidin; Example 5, Experiment 1, without Malp-2, 10 nM pimecrolimus): 1.33
- Cathelicidin mRNA expression (means) (cathelicidin; Example 5, Experiment 2, with 0.1 μg/ml Malp-2, 10 nM pimecrolimus): 3.07
- Cathelicidin mRNA expression (means) (cathelicidin; Example 5, Experiment 2, without Malp-2, 10 nM pimecrolimus): 2.40
- Cathelicidin mRNA expression (Means of N = 3) (cathelicidin; 0 h): 1.20
- Cathelicidin mRNA expression (Means of N = 3) (cathelicidin; 8 h): 1.82
- Cathelicidin mRNA expression (Means of N = 3) (cathelicidin; 24 h): 1.75
- Cathelicidin mRNA expression (Means of N = 3) (cathelicidin; 48 h): 2.06
- Concentration at which cathelicidin mRNA expression peaks (bell-shaped dose response) (cathelicidin; Example 7): 20 nM
- Cathelicidin mRNA expression (Mean) (cathelicidin; Example 7, 5 nM PIM): 1.46
- Cathelicidin mRNA expression (Mean) (cathelicidin; Example 7, 10 nM Pim): 2.26
- Cathelicidin mRNA expression (Mean) (cathelicidin; Example 7, 20 nM Pim): 82.72
- Cathelicidin mRNA expression (Mean) (cathelicidin; Example 7, 40 nM Pim): 3.37
- Cathelicidin mRNA expression (Mean) (cathelicidin; Example 7, 60 nM Pim): 1.78
- Cathelicidin mRNA expression (Mean) (cathelicidin; Example 8, 0.01 nM PIM with 1 nM 1.25D3, 24 hours): 4.56
- Cathelicidin mRNA expression (Mean) (cathelicidin; Example 8, 0.01 nM PIM, no 1.25D3, 24 hours): 1.04
- Cathelicidin mRNA expression (Mean) (cathelicidin; Example 8, 0.1 nM PIM with 1 nM 1.25D3, 24 hours): 4.19
- Cathelicidin mRNA expression (Mean) (cathelicidin; Example 8, 0.1 nM PIM, no 1.25D3, 24 hours): 0.47
- Cathelicidin mRNA expression (Mean) (cathelicidin; Example 8, 1 nM PIM with 1 nM 1.25D3, 24 hours): 10.92
- Cathelicidin mRNA expression (Mean) (cathelicidin; Example 8, 1 nM PIM, no 1.25D3, 24 hours): 1.61
- Cathelicidin mRNA expression (Mean) (cathelicidin; Example 8, 10 nM PIM with 1 nM 1.25D3, 24 hours): 99.45
- Cathelicidin mRNA expression (Mean) (cathelicidin; Example 8, 10 nM PIM, no 1.25D3, 24 hours): 9.81
- Increase of cathelicidin mRNA expression, pimecrolimus in conjunction with calciferol versus pimecrolimus alone (cathelicidin; at the 1 nM and 10 nM concentrations of pimecrolimus, 1 nM calciferol): > 2 times
- Transcript and protein abundance of antimicrobial genes (in words) (cathelicidin; in the presence of Toll 2/6 ligand Malp-2, summary of Tables 3-5 (cathelicidin, HBD2, HBD3)): increases transcript and protein abundance of antimicrobial genes
- Cathelicidin transcript abundance (in words) (cathelicidin; [3]): enhances cathelicidin transcript abundance
- Bacterial growth OD600 (Mean) ([2]; 0 h): 0.3083
- Bacterial growth OD600 (Mean) ([2]; 2 h): 0.3387
- Bacterial growth OD600 (Mean) ([2]; 4 h): 0.4157
- Bacterial growth OD600 (Mean) ([2]; 5 h): 0.4333
- Bacterial growth OD600 (Mean) ([2]; 6 h): 0.4227
- Bacterial growth OD600 (Mean) ([2]; 8 h): 0.601
- Direct antimicrobial effect (in words) ([2]; summary of Table 2): does not have an antimicrobial effect by itself
- HBD3 expression (Mean) (HBD3; with 10 nM Pimecrolimus + 0.1 μg/ml LPS): 1.06
- HBD3 expression (Mean) (HBD3; with 10 nM Pimecrolimus + 0.1 μg/ml Malp-2): 28.59
- HBD3 expression (Mean) (HBD3; with 10 nM Pimecrolimus + 1 μg/ml PGN): 1.24
- HBD3 expression (Mean) (HBD3; with 10 nM Pimecrolimus + 10 μg/ml LTA): 0.72
- HBD3 expression (Mean) (HBD3; with 10 nM Pimecrolimus, no TLR ligand (control row)): 0.72
